The results in this text go back to paper PMC11279411, “Structure-Based Identification of Novel Histone Deacetylase 4 (HDAC4) Inhibitors” (Pharmaceuticals, 2024).

For data set [1], the target named is HDAC3 (Homo sapiens, UniProt O15379). The data set is described as follows: HDAC3 fluorogenic activity assay (BPS Bioscience kit). The following applies: for relative percent activity of HDAC3 (activity retained) / decrease of HDAC3 activity: 100 μM compound; for relative percent activity of HDAC3 (activity retained): compared to absence of inhibitor.
Method: (§2) HDAC3 and HDAC4 activity assays were performed using fluorogenic assay kits obtained from BPS Bioscience (San Diego, CA, USA) by following the protocol that is supplied by the manufacturer. Briefly, purified enzyme (40 pg/μL HDAC3 or 1.2 pg/μL HDAC4) in a total of 50 μL buffer containing 0.1% BSA was incubated with substrate (20 μM for HDAC3 and 2 μM for HDAC4) at 37 °C for 30 min in a 96-well plate. A fluorescence developer (50 μL) was added and the plate was incubated at room temperature for a further 15 min. The activity of the enzymes in the absence and presence of compounds was measured on a BioTek Cytation 5 plate reader, exciting the samples at 350 nm and measuring emission at 450 nm. Compounds were prepared as 10 mM stocks in DMSO, diluted to 1 mM in 20 mM NaHEPES, 150 mM NaCl, pH 7.4 buffer, and were screened at 100 μM in the assays at least in duplicate. A positive control with 1% DMSO added in lieu of an inhibitor and a negative control without enzyme were also prepared in each assay plate. The negative control was subtracted from all fluorescence values, while the positive control was used as the reference for 100% activity of the enzyme.
Data set [2] concerns human breast carcinoma MDA-MB231 cell line. Nature of the data set: MTT cell viability assay, MDA-MB231. Particulars: for IC50 / viability at 100 µM: MDA-MB-231, 48 h; for IC50: read-out: IC50 (cell viability); for viability at 100 µM: read-out: Relative cell viability. The procedure: (§1) Cell viability assays were determined using Methyl Thiazolyl Tetrazolium (MTT) assay (Travigen, Gaithersburg, MD, USA). A total of 5 × 10^3 SW780 (human transitional urinary bladder cancer cell line) or 1 × 10^4 (human triple-negative breast cancer cell line MDA-MB231, American Type Culture Collection [ATCC], Rockville, MD, USA) in 100 µL of culture media were seeded to each well of 96-well culture plates. These cell lines were chosen based on previous work. The MDA-MB231 and SW780 cell lines were cultured in Dulbecco’s modified Eagle’s medium (DMEM) with 10% or 5% heat-inactivated fetal bovine serum, respectively, 100 U/mL penicillin, and 100 µg/mL streptomycin. Cultures were maintained in 5% CO2 at 37 °C and subcultured every 2–3 days. At 24 h after seeding, cells were treated with various concentrations of potential HDAC inhibiting compounds for 48 h (100 µM for initial screening, […], 1, 10, 100, 250, and 500 µM for the dose–response experiment). Subsequently, 10 µL of MTT reagent was added to each well and incubated for 4 h, followed by the addition of 100 µL of detergent reagent. The plate was incubated overnight. The reduced MTT reagent in cultures was measured at 570 nm by using an ELISA reader (Bio-Tek, Winooski, VT, USA). The IC50 for each compound was calculated from fitted nonlinear regression dose–response curves.

Data set [3] addresses HDAC4 (Homo sapiens, UniProt P56524). Nature of the data set: HDAC4 fluorogenic activity assay (BPS Bioscience kit). The following applies: for relative percent activity of HDAC4 (activity retained): 100 μM compound, compared to absence of inhibitor; for IC50 fold lower for HDAC4 than HDAC3: selectivity HDAC4 over HDAC3 from IC50 values.
Method: as §2
In data set [4] the test system is transitional urothelial carcinoma SW780 cell line. Nature of the data set: MTT cell viability assay, SW780. Particulars: Homo sapiens; for IC50 / viability at 100 µM: SW780, 48 h; for IC50: read-out: IC50 (cell viability); for viability at 100 µM: read-out: Relative cell viability. The procedure:
as §1
On the technique in general: Tetrazolium assays rely on reduction of a dye to a coloured formazan, in cell work by metabolically active cells.

[5] abbreviates: read-out: IC50 (μM) for HDAC3, highest concentration 500 μM.
[6] abbreviates: read-out: IC50 (μM) for HDAC4, highest concentration 500 μM.

Where two headings read alike, the source gives them in different places.

HDAC4, sequence (P56524 whole entry): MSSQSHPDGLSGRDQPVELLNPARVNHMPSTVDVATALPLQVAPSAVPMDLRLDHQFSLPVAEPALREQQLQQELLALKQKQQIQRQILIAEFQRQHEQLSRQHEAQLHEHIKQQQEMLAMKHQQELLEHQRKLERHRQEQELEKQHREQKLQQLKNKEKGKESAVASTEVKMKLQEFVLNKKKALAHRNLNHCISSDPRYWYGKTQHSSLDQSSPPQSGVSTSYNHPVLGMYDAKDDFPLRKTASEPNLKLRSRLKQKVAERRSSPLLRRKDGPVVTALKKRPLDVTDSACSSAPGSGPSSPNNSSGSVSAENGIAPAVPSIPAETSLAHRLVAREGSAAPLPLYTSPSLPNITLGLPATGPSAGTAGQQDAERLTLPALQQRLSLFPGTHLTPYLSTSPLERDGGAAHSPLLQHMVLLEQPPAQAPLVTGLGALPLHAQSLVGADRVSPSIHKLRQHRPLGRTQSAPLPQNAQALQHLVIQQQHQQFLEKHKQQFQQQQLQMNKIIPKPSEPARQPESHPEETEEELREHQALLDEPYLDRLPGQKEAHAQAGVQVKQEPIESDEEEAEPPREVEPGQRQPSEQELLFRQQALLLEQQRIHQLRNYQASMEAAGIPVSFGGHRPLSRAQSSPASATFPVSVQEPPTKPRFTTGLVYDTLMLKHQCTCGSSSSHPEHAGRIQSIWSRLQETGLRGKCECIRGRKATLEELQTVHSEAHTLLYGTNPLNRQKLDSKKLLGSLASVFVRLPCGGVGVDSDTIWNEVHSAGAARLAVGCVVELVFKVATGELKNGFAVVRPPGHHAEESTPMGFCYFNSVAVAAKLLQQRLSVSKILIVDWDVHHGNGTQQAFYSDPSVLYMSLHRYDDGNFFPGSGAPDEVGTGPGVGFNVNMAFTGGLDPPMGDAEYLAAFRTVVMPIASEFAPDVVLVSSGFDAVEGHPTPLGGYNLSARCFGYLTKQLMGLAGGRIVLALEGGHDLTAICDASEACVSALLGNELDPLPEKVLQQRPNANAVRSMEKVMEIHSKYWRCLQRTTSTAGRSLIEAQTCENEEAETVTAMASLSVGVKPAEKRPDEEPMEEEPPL
HDAC3, sequence (O15379 whole entry): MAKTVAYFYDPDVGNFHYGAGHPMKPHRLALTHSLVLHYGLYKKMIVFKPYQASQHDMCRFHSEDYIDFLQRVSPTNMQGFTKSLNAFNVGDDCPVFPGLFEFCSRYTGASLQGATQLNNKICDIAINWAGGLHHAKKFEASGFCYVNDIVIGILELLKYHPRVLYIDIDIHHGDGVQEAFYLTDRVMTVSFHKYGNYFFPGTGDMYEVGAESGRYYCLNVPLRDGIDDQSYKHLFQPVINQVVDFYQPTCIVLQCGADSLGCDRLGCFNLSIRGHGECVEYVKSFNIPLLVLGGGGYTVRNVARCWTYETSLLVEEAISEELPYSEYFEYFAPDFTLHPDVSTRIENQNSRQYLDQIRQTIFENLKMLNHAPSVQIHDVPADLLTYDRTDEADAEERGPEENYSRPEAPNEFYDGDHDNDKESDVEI
HDAC3, sequence (Q9Y618 395-489 partner limits assumed): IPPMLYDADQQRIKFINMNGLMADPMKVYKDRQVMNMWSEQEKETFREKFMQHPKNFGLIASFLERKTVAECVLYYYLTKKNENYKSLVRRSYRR

On to `CCOC(=O)C(=CNc1ccccc1Cl)C(=O)OCC` [Compound 79887], for which the IC50 – broadly, the concentration at which inhibition is half-maximal – in data set [1] (setting [5]) was more than 500 µM.
In the case of `COc1ccc2c(c1)NP(=S)(Oc1ccccc1)N2` (centres unmarked) [Compound 88402], the Relative cell viability result in data set [2] (MDA-MB231, 100 µM compound, 48 h, untreated cells = 100%) is given as “did not show activity”. Further, in data set [1], 210 ± 60 µM corresponded to half-maximal inhibition (IC50) and the “relative percent activity of HDAC3 (activity retained)” value (from here on “relative percent activity of HDAC3”) is listed as 75%. Further, in data set [3], the concentration for half-maximal inhibition (IC50) turned out to be 100 ± 40 µM, the “relative percent activity of HDAC4 (activity retained)” value (shortened to “relative percent activity of HDAC4”) was less than 40% and the “IC50 fold lower for HDAC4 than HDAC3” value was “at least 2 fold”.
In data set [1], `COc1cc(C2NC(=O)C(C#N)=C(Nc3cccc(C)c3)S2)ccc1O` (centres unmarked) [Compound 319435] registered an IC50 of more than 500 µM. For the same compound, in data set [3], it took 150 ± 50 µM to reach half-maximal inhibition (IC50) and the “IC50 fold lower for HDAC4 than HDAC3” value is on record as “at least 2 fold”.
Take `NC(=S)NN=Cc1cc(-c2cccc(N)c2)ccn1` [Compound 195327]: in data set [4], the IC50 came to 89 ± 48 µM and the viability – broadly, a read-out of living cells in per cent, often relative to untreated cells – at 100 µM was less than 50%. In data set [2] (Homo sapiens), the IC50 worked out at 37 ± 17 µM and the viability at 100 µM is less than 60%. In data set [1], the IC50 is more than 500 µM and the “decrease of HDAC3 activity” value came to 80%. Also, in data set [1] (highest concentration 500 μM), the “IC50 (μM) for HDAC3” value is “no inhibition”. In addition, in data set [3], the “relative percent activity of HDAC4” value is “unchanged”. Besides, the “IC50 (μM) for HDAC4” value in data set [3] (highest concentration 500 μM) is “did not inhibit”.
For the compound `O=C(Nc1ccc(C2=NCCN2)cc1)c1ccc(Cl)c(C(=O)Nc2ccc(C3=NCCN3)cc2)c1` [Compound 67436], in data set [4], the IC50 was found to be 131 ± 26 µM and the viability at 100 µM was less than 50%. For the same compound, in data set [2] (Homo sapiens), the IC50 worked out at 138 ± 23 µM and the viability at 100 µM is less than 60%. Besides, in data set [1], the midpoint of inhibition, the IC50, lay at 9.2 ± 5.2 µM and the “relative percent activity of HDAC3” value is listed as not above 40%. Moreover, in data set [1] (selectivity HDAC3 over HDAC4 from IC50 values), the “HDAC3 IC50 relative to that for HDAC4” value was “five times lower”. Also, in data set [3], the concentration for half-maximal inhibition (IC50) turned out to be 47 ± 28 µM and the “relative percent activity of HDAC4” value was not above 40%.
As to `O=C(CN1CCOCC1)N1CCOCC1` [Compound 51936], the IC50 was more than 500 µM in data set [1] (setting [5]) and 550 ± 350 µM in data set [3] (setting [6]).
`NS(=O)(=O)c1ccc(N=Nc2ccc(=O)[nH]c2O)cc1` [Compound 134199]: in data set [2] (100 µM), the Relative cell viability entry is listed as “little potency”. Besides, in data set [1], the “relative percent activity of HDAC3” value is not above 40%. Further, the figures for the IC50 in data set [1] (setting [5]) and in data set [3] (setting [6]) were 25 ± 7 µM and 33 ± 12 µM, respectively. Further, the “relative percent activity of HDAC4” value in data set [3] is on record as not above 40%.
In the case of `CC12CCC(C(NC(=S)NN)C1=O)C2(C)C` (centres unmarked) [Compound 36425], the IC50 in data set [1] (setting [5]) is more than 500 µM; in data set [3] (setting [6]) it was 480 ± 260 µM.
With `COc1cccc2c1cc([N+](=O)[O-])c1c(C(=O)O)cc3c(c12)OCO3` [Compound 11926], the IC50 in data set [4] is 223 ± 49 µM; in data set [2] (Homo sapiens), 126 ± 10 µM; in data set [1] it was more than 500 µM. For the same compound, the values for the viability at 100 µM in data set [4] and in data set [2] (Homo sapiens) were less than 50% and less than 60%, respectively. Besides, the viability at 500 µM in data set [4] (SW780, read-out: cell viability) was 45%; in data set [2] (Homo sapiens, MDA-MB-231, read-out: cell viability), 9%.
With `CCOC(=O)C(=NO)C1=CSC2=NNC(C)(C)N12` [Compound 299968], the concentration for half-maximal inhibition (IC50) in data set [4] was 300 ± 17 µM; in data set [2] (Homo sapiens), 113 ± 19 µM; in data set [1], more than 500 µM; in data set [3], 250 ± 170 µM. Also, the viability at 100 µM in data set [2] (Homo sapiens) is less than 60%. Also, the “IC50 fold lower for HDAC4 than HDAC3” value in data set [3] was “at least 2 fold”.
`O=[N+]([O-])c1cc(-c2cccnc2)n[nH]1` [Compound 4135]: the values for the IC50 in data set [1] (setting [5]) and in data set [3] (setting [6]) were more than 500 µM and 410 ± 240 µM, respectively.
Take `CCOC(=O)C1C(=O)C(=O)N(C(C)C)C1C(=O)OCC` (centres unmarked) [Compound 55172]: in data set [1] (setting [5]), the IC50 is more than 500 µM.
With `CN(C)c1ncnc2c1ncn2-c1ccccc1` [Compound 34488], the “decrease of HDAC3 activity” value in data set [1] is reported as 50%. Also, the half-inhibitory concentration (IC50) in data set [1] (setting [5]) was more than 500 µM. Also, in data set [3], the “relative percent activity of HDAC4” value is given as “unchanged”.
As for `CCCn1cnc2c(Sc3c([N+](=O)[O-])ncn3C)nc(N)nc21` [Compound 44584], in data set [4], the half-maximal inhibitory concentration (IC50) worked out at 213 ± 13 µM. In addition, in data set [2] (Homo sapiens), the IC50 is 137 ± 18 µM and the viability at 100 µM was less than 60%. Moreover, in data set [1], the IC50 was more than 500 µM and the “decrease of HDAC3 activity” value is on record as 60%. Further, the “relative percent activity of HDAC4” value in data set [3] is recorded as “unchanged”.
